Laboratory results from ChEMBL document CHEMBL5576083, “Structure-Based Design and Synthesis of Covalent Inhibitors for Deubiquitinase and Acetyltransferase ChlaDUB1 of Chlamydia trachomatis” (J Med Chem, 2024).
≈ marks a conversion by molar mass, not a printed value. Calls of active or inactive are those of the source. No cut-off for these calls is given here.

Columns and labels:
[1] = test system: Chlamydia trachomatis; assay: Antimicrobial activity against Chlamydia trachomatis serovar L2 infected in human HeLa cells assessed as reduction in inclusion area at 6.25 ug/ml measured after 24 hrs of post-infection by microscopic analysis; assay type: functional; conditions: dose 6.25 µg/ml
[2] = target: Ubiquitin carboxyl-terminal hydrolase 14 (Homo sapiens) (UniProt P54578); assay: Inhibition of human USP14 using Ub-Rh110Gly as fluorogenic substrate at 40 uM preincubated for 1 hr followed by substrate addition by plate reader analysis
[3] = test system: Chlamydia trachomatis; assay: Antimicrobial activity against Chlamydia trachomatis serovar L2 infected in human HeLa cells assessed as inclusion forming unit at 12.5 ug/ml measured at 24 to 48 hrs of post-infection by immunofluorescence based microscopic analysis; assay type: functional; conditions: dose 12.5 µg/ml; time 24-48 hrs
[4] = test system: Chlamydia trachomatis; assay: Antimicrobial activity against Chlamydia trachomatis serovar L2 infected in human HeLa cells assessed as reduction in microbial progeny at 12.5 ug/ml measured after 48 hrs of post-infection by immunofluorescence analysis; assay type: functional; parameters: scale not given: the % may be the effect or the level left; conditions: dose 12.5 µg/ml
[5] = test system: Chlamydia trachomatis; assay: Antimicrobial activity against Chlamydia trachomatis serovar L2 infected in human HeLa cells assessed as inclusion forming unit at 1.56 to 6.25 ug/ml measured after 24 hrs of post-infection by immunofluorescence based microscopic analysis; assay type: functional; conditions: dose 1.56-6.25 µg/ml
[6] = test system: Chlamydia trachomatis; assay: Antimicrobial activity against Chlamydia trachomatis serovar L2 infected in human HeLa cells assessed as reduction in inclusion circumference at 12.5 ug/ml measured after 24 hrs of post-infection by microscopic analysis (reference value: 31.72 micrometer); assay type: functional; conditions: dose 12.5 µg/ml
[7] = test system: Chlamydia trachomatis; assay: Inhibition of C-terminal 6His-tagged Chlamydia trachomatis DUB1 (130 to 401 residues) expressed in Escherichia coli Rosetta 2 (DE3) cells using Ub-Rh110Gly as fluorogenic substrate at 40 uM preincubated for 1 hr followed by substrate addition by plate reader analysis
[8] = Inhibition of Chlamydia trachomatis DUB2 expressed in Escherichia coli Rosetta 2 (DE3) cells using Ub-Rh110Gly as fluorogenic substrate preincubated for 1 hr followed by substrate addition by plate reader analysis
[9] = test system: Chlamydia trachomatis; assay: Antimicrobial activity against Chlamydia trachomatis serovar L2 infected in human HeLa cells assessed as reduction in microbial progeny at 6.25 ug/ml measured after 24 hrs of post-infection by immunofluorescence analysis; assay type: functional; parameters: scale not given: the % may be the effect or the level left; conditions: dose 6.25 µg/ml
[10] = test system: Chlamydia trachomatis; assay: Antimicrobial activity against Chlamydia trachomatis serovar L2 infected in human HeLa cells assessed as reduction in microbial progeny at 3.13 ug/ml measured after 24 hrs of post-infection by immunofluorescence analysis; assay type: functional; parameters: scale not given: the % may be the effect or the level left; conditions: dose 3.13 µg/ml
[11] = Solubility of compound in PBS incubated overnight by shake-flask based HPLC analysis; assay type: physicochemical
[12] = test system: Chlamydia trachomatis; assay: Antimicrobial activity against Chlamydia trachomatis serovar L2 infected in human HeLa cells assessed as reduction in inclusion forming unit at 12.5 ug/ml measured after 8 hrs of post-infection by immunofluorescence based microscopic analysis; assay type: functional, organism-based; conditions: dose 12.5 µg/ml
[13] = target: T1, Ubiquitin thioesterase OTU1 (Homo sapiens) (UniProt Q5VVQ6); assay: Inhibition of GST-tagged human OTUD2 using Ub-AMC as substrate at 40 uM preincubated for 1 hr followed by substrate addition by plate reader analysis
T1 sequence (whole entry): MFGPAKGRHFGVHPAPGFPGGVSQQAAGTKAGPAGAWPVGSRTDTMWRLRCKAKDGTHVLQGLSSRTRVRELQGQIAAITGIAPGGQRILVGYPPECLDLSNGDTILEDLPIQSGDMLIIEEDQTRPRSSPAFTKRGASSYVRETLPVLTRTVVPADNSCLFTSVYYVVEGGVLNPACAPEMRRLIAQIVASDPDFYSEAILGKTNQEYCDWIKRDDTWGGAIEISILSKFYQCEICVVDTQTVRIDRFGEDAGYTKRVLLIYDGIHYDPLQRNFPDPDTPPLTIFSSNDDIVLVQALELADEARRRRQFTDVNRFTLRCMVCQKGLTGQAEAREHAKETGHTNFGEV

[14] = target: T2, OTU domain-containing protein 3 (Homo sapiens) (UniProt Q5T2D3); assay: Inhibition of GST-tagged human OTUD3 using Ub-Rh110Gly as fluorogenic substrate at 40 uM preincubated for 1 hr followed by substrate addition by plate reader analysis
T2 sequence (whole entry): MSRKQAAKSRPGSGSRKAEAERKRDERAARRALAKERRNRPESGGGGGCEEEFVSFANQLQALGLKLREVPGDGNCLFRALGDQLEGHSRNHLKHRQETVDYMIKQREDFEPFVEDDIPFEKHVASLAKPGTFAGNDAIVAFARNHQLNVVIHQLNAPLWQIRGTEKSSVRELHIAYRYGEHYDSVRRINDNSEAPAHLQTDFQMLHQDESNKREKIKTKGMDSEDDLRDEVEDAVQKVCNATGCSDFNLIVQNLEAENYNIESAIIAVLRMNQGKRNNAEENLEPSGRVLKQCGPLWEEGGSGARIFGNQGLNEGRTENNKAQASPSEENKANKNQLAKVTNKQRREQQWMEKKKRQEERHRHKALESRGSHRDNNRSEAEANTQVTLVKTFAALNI

Chain of Ubiquitin carboxyl-terminal hydrolase 14 (Homo sapiens) (P54578 whole entry): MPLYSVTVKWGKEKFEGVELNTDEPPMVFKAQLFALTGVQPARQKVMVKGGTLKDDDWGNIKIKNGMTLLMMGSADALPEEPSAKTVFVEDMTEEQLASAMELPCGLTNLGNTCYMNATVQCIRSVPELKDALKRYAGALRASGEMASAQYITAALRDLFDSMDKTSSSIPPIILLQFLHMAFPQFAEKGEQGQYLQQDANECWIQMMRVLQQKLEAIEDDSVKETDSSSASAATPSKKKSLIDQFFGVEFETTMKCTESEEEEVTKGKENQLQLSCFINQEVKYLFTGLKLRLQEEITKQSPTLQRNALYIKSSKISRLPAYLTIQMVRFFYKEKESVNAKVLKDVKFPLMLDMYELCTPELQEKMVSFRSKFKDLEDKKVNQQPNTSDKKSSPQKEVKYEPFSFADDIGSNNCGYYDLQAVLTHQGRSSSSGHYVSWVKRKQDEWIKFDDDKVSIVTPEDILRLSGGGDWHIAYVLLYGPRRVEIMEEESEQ

- inhibition [2]: inactive
- IC50 [8]: 15.7 µM
- solubility thermodynamic [11]: 308 µM (≈ 128 µg/mL)
- inhibition [13]: inactive
- inhibition [14]: inactive
SMILES: N#Cc1ncc(C(=O)NCc2ccc(C(=O)NC34CC5CC(CC(C5)C3)C4)cc2)cn1
- Activity [1]: 47.16 um2
- Activity [3]: 3.7 10^6IFU/ml
- Activity [4]: 98.5%
- Activity [5]: 1.075 10^7IFU/ml
- Activity [6]: 14.75 um
- inhibition [7]: Active
- Activity [9]: 66.5%
- Activity [10]: 45.5%
- Activity [12]: Active
